Reference: patent US20250275976A1, “Methods of Treating Neuroinflammatory Conditions” (Athira Pharma, Inc., priority 2022, published 2025)
Values joined by “and” are separate entries in the source; they are usually repeats but may differ in a detail not shown here. Equal entries are not always repeated. “Also recorded” adds a separate entry of the source. Where two headings read alike, the source gives them in different places. Square brackets hold non-standard residues; d marks the D form. Peptide text beside a SMILES is read from it. * marks the point of attachment. pY = N[CH](Cc1ccc(OP(=O)(O)O)cc1)C(=O)O; Hexanoyl = CCCCCC(=O)*; Ahx = NCCCCCC(=O)O

Experiments:
[1] = system: Rat primary cortical neuron cultures; details: LPS 24 h
Experimental: (§1) To assess the neuroprotective effect of compound treatment against inflammatory insult, primary cultured cortical neurons were subjected to lipopolysaccharide (LPS) treatment for 24h along with various compound doses of compounds of Formula (I) or Compound A19. […] Rat primary cortical neuron cultures were grown at 37° C., 5% C02 in Complete Neurobasal Medium supplemented with B27/GDNF/BDNF containing 10% FBS until maturity. 25 μl of culture volume were seeded in a 384-well plate at 5,000 cells/well, and treated with 1 μM, 100 nM, 10 nM, 1 nM, or 0.1 nM of test compound for 15 minutes. Cells were then subjected to 1 μM LPS challenge for 24 hours. Luminescence measurements to assess relative levels of ATP were performed on an Envision plate reader (Perkin Elmer). Data for DMSO control were set to 100% cell viability, and each group (n=4) were averaged and presented as mean±SEM.

[2] = system: Rat primary cortical neuron cultures; assay: Neuroprotection of rat cortical neurons against LPS challenge (Cell Titer-Glo); details: at at least one dose tested
Experimental: as §1

[3] = system: male CD-1 mice; assay: T-maze spontaneous alternation, LPS-induced cognitive deficit; assay type: in vivo, mouse; details: for Spontaneous alternation (%) Mean: LPS 250 μg/kg i.p.; for Recovery (%): saline/vehicle = 100%, LPS/vehicle = 0%; for Reversal of LPS-induced cognitive deficit in T-maze (result in words): ANOVA, Fisher's PLSD, p<0.05, doses as in the value
Source text: Encephalitis refers to inflammation of the brain that may result in brain swelling fever, headache, confusion, and seizures. The source of neuroinflammation can vary widely, including due to viral, bacterial, parasitic, or fungal infection or due to autoimmune diseases. Lipopolysaccharide (LPS) is a bacterial endotoxin that induces an intense neuroinflammatory reaction and has been associated with cognitive decline. The ability of Compound A19 to reverse cognitive decline induced by LPS in a mouse model of encephalitis was studied using a T-maze assay. In a separate substantially similar assay, Compounds 1a and 5a were also assessed.
Spontaneous and continuous alternation is the innate tendency of rodents to alternate free choices in a T-maze (T-CAT) over a series of successive runs. This sequential procedure relies on working memory and is sensitive to various pharmacological manipulations affecting memory processes. The present studies were conducted to evaluate the abilities of Compound A19, Compound 1a and Compound 5a to reverse LPS-induced cognitive deficit in the T-maze assay.
Compound A19 was dissolved in 0.9% NaCl (saline) and vortexed periodically until complete dissolution and with the pH adjusted between 7.4 and 7.8. Compound A19 was used in concentrations of 0.125, 0.1, 0.05, 0.025 and 0.0125 mg/ml which when given in a volume of 10 ml/kg result in doses of 1.25, 1, 0.5, 0.25 and 0.125 mg/kg, respectively. Compound 1a was dissolved at 160 mg/ml in 100% DMSO and vortexed until complete dissolution. Then the above stock solution was diluted in 20% PEG-400 and 78% 0.9% NaCl, whereby the stock solution comprised 2% of the final solution. Compound 1a was used in concentrations of 0.05, 0.2, 0.8, 1.6 and 3.2 mg/ml which when given in a volume of 10 ml/kg result in doses of 0.5, 2, 8, 16 and 32 mg/kg, respectively. Compound 5a was dissolved at 100 mg/ml in 100% DMSO and vortexed until complete dissolution. Then the above stock solution was diluted in 20% PEG-400 and 78% 0.9% NaCl, whereby the stock solution comprised 2% of the final solution. Compound 5a was used in concentrations of 0.125, 0.25, 0.5, 1 and 2 mg/ml which when given in a volume of 10 ml/kg result in doses of 1.25, 2.5, 5, 10 and 20 mg/kg, respectively.
Memantine was dissolved in saline. Memantine was used in concentration of 0.1 and 0.01 mg/ml, which when given in a volume of 10 ml/kg result in a dose of 1 and 0.1 mg/kg, respectively. Memantine is approved for symptomatic treatment of Alzheimer's disease was used as a reference compound.
LPS was dissolved in saline and prepared at a concentration of 0.0125 mg/ml and given intraperitoneally (i.p.) at a dosage volume of 20 ml/kg to yield a dose of 0.25 mg/kg ([…]).
Four to five weeks old male CD-1 mice (Janvier; Le Genest St Isle - France) were used for the study.
LPS was injected i.p. 2 weeks prior the T-maze trial. Compound 1a was tested at doses of 0.5, 2, 8, 16, and 32 mg/kg administered orally (p.o.) for 14 days with last treatment given 60 min before the T-maze trial. Compound 5a was tested at the doses of 1.25, 2.5, 5, 10, and 20 mg/kg administered orally (p.o.) for 14 days with last treatment given 60 min before the T-maze trial. LPS was injected i.p. 2 weeks prior the T-maze trial.
The T-maze apparatus was made of gray Plexiglas with a main stem (55 cm long×10 cm wide×20 cm high) and two arms (30 cm long×10 cm wide×20 cm high) positioned at a 90-degree angle relative to the main stem. A start box (15 cm long×10 cm wide) was separated from the main stem by a guillotine door. Horizontal doors were also provided to close specific arms during the force choice alternation task.
The experimental protocol consisted of a single session, which started with one “forced-choice” trial, followed by 14 “free-choice” trials. In the “forced-choice” trial, the animal was confined 5 seconds in the start arm and was then released while either the left or right goal arm was blocked by a horizontal door. […]

[4] = system: Prp-TDP43^A315T mice; assay type: in vivo
Experimental: Extranuclear accumulation of TDP-43 protein is a pathological hallmark of a number of neurological diseases. […] Male Prp-TDP43^A315T mice (N=10 mice per group) at 3 weeks of age were administered daily treatments of test compounds. Compound A19 was administered via subcutaneous injection, and Compound 5a and Compound 6a were administered via oral gavage. After 2 months of treatment, plasma samples were collected for cytokine quantification. […] Plasma IL-6 and TNF-α cytokine expression levels were determined using the ELISA method. The submandibular vein was punctured with a lancet and a blood drop was collected directly on a microtube containing EDTA as anticoagulant. Samples were centrifuged for 15 minutes at 1000×g at 4° C. within 20 minutes of collection. 20 μl of plasma supernatant was stored at −20° C. before ELISA analysis.
Plasma was diluted at 1:10 in sterile PBS, and IL-6 and TNF-α quantification was performed in duplicate for each animal using 10 μl of sample per well in 96-well plates using the ELISA method (IL-6: Signa-Aldrich Cat #RAB0308, TNF-α: Sigma-Aldrich Cat #RAB0477). Statistical analysis was carried out by 2-way ANOVA with Dunnett's multiple comparisons post-test with compound-treated samples compared to vehicle-treated samples.

[5] = system: Rat primary cortical neuron cultures; assay: Neuroprotection of rat primary cortical neurons against neurotoxic insults (Cell Titer-Glo viability); assay type: cell-based; details: for Statistical significance vs. insult control (cell viability): Positive Control MK-801 (1 uM)
Source text: HGF/MET signaling activation is expected to protect cells, including neurons, from cell death. […] Hydrogen peroxide (H2O2) treatment produces toxic oxidative stress. Bacteria-derived lipopolysaccharide (LPS) treatment induces inflammatory cell death. Treatment with excess glutamate (Glut) produces excitotoxicity in neuron cultures. Treatment with 1-methyl-4-phenylpyridinium (MPP^+) causes cell death by inhibition of mitochondrial function.
Cells were then subjected to individual conditional insults for 24 hours at the following concentrations: H2O2 at 1 uM, LPS at 1 uM, glutamate at 25 uM, or MPP+ at 500 uM. All treatments contained recombinant human HGF (R&D Systems) at a concentration of 5 ng/ml. MK-801 (Dizocilpine) is a pore blocker of the N-Methyl-D-aspartate (NMDA) receptor, a glutamate receptor, and was used as a positive control.
Data was normalized to DMSO+HGF control set at 100% cell viability.
Data are reported as statistical significance vs. insult control, with NS=not significant, +=p<0.05, ++=p<0.01, and +++=p<0.001.

[6] = 2 months of treatment, doses as in the value
[7] = insult alone 24 h (H2O2 1 uM, Glutamate 25 uM, LPS 1 uM, MPP+ 500 uM), Compound 1a study, Table 2
[8] = insult alone (H2O2 1 uM, Glutamate 25 uM, LPS 1 uM, MPP+ 500 uM), A19 active metabolite study, Table 3

CCC(C)CN1CC2N(C(=O)c3ccc(OC(F)F)cc3)CCC(=O)N2[C@@H](C)C1=O (some centres unmarked) [Compound 2a]
Significance of neuroprotection vs 1 uM LPS ([1]; dose 0.1 nM): +++ (+++ indicates p<0.001)
Significance of neuroprotection vs 1 uM LPS ([1]; dose 1 nM): +++ (+++ indicates p<0.001)
Significance of neuroprotection vs 1 uM LPS ([1]; dose 10 nM): +++ (+++ indicates p<0.001)
Significance of neuroprotection vs 1 uM LPS ([1]; dose 100 nM): +++ (+++ indicates p<0.001)
Significance of neuroprotection vs 1 uM LPS ([1]; dose 1 μM): +++ (+++ indicates p<0.001)
Protection of primary neurons from LPS-stimulated inflammatory toxicity (in words) [2]: protected primary neurons from LPS-stimulated inflammatory toxicity

CCCCCC(=O)NC(Cc1ccc(OP(=O)(O)O)cc1)C(=O)NC(C(=O)NCCCCCC(N)=O)C(C)CC (centres unmarked) [Compound A19] (Hexanoyl-[pY]-Ile-[Ahx]-NH2; configuration not given here)
Spontaneous alternation (%) Mean ([3]; A19 0.125 mg/kg s.c. daily 14 days, 0.125 mg/kg): 42% and 42.1%
Recovery (%) ([3]; A19 0.125 mg/kg s.c., 0.125 mg/kg): -12%
Spontaneous alternation (%) Mean ([3]; A19 0.25 mg/kg s.c. daily 14 days, 0.25 mg/kg): 60%
Recovery (%) ([3]; A19 0.25 mg/kg s.c.): 62%
Spontaneous alternation (%) Mean ([3]; A19 0.5 mg/kg s.c. daily 14 days, 0.5 mg/kg): 64% and 64.3%
Recovery (%) ([3]; A19 0.5 mg/kg s.c.): 79%
Spontaneous alternation (%) Mean ([3]; A19 1 mg/kg s.c. daily 14 days, 1 mg/kg): 61% and 60.7%
Recovery (%) ([3]; A19 1 mg/kg s.c.): 65%
Spontaneous alternation (%) Mean ([3]; A19 1.25 mg/kg s.c. daily 14 days, 1.25 mg/kg): 61% and 60.7%
Recovery (%) ([3]; A19 1.25 mg/kg s.c., 1.25 mg/kg): 58%
Reversal of LPS-induced cognitive deficit in T-maze (result in words) [3]: significant at all doses except at 0.125 mg/kg; also recorded: reversed the LPS-induced cognitive disruption
Significant decrease in plasma cytokine expression after 2 months of treatment: IL-6 ([4]; 0.005 mg/kg SC daily): ++++ (++++ = p < 0.0001)
Significant decrease in plasma cytokine expression after 2 months of treatment: TNF-α ([4]; 0.005 mg/kg SC daily): ++++ (++++ = p < 0.0001)
Significant decrease in plasma cytokine expression after 2 months of treatment: TNF-α ([4]; 0.01 mg/kg SC daily): + (+ = p < 0.05)
Significant decrease in plasma cytokine expression after 2 months of treatment: IL-6 ([4]; 0.03 mg/kg SC daily): + (+ = p < 0.05)
Plasma IL-6 expression (result in words) [4, 6]: significantly reduced TL-6 expression at doses of 0.005, 0.01, and 0.03 mg/kg
Plasma TNF-α expression (result in words) [4, 6]: significantly reduced TNF-α expression at 0.005 and 0.01 mg/kg

OO [Compound H2O2, Hydrogen peroxide, reference compound]
Insult effect (% viability vs vehicle) [5, 7]: 64.23%
Insult effect (% viability vs vehicle) [5, 8]: 59.35%

N[C@@H](CCC(=O)O)C(=O)O [Glutamate, glutamate, reference compound]
Insult effect (% viability vs vehicle) [5, 7]: 49.55%
Insult effect (% viability vs vehicle) [5, 8]: 54.4%

C[C@]12N[C@H](Cc3ccccc31)c1ccccc12 [MK-801, Dizocilpine, reference compound]
Statistical significance vs. insult control (cell viability) ([5]; Glutamate (25 uM) insult): +++ (+++=p<0.001)
Statistical significance vs. insult control (cell viability) ([5]; H2O2 (1 uM) insult): +++ (+++=p<0.001)
Statistical significance vs. insult control (cell viability) ([5]; LPS (1 uM) insult): +++ (+++=p<0.001)
Statistical significance vs. insult control (cell viability) ([5]; MPP+ (500 uM) insult): +++ (+++=p<0.001)

C[n+]1ccc(-c2ccccc2)cc1 [MPP+, 1-methyl-4-phenylpyridinium, reference compound]
Insult effect (% viability vs vehicle) [5, 7]: 49.85%
Insult effect (% viability vs vehicle) [5, 8]: 54.3%

CC12CC3CC(C)(C1)CC(N)(C3)C2 [Memantine, reference compound]
Reversal of LPS-induced cognitive deficit in T-maze (result in words) [3]: significant at both doses
Spontaneous alternation (%) Mean ([3]; Memantine 0.1 mg/kg i.p. daily 14 days): 64% and 63.6%
Recovery (%) ([3]; Memantine 0.1 mg/kg i.p.): 76%
Spontaneous alternation (%) Mean ([3]; Memantine 1 mg/kg i.p. daily 14 days): 54% and 54.3%
Recovery (%) ([3]; Memantine 1 mg/kg i.p.): 38%
